The structures appear in SMILES notation.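 Results reflect a 48-hour exposure of cells in 96-well plates to compound at five concentrations. GI50 is the concentration that inhibits growth by half.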 Activity calls are given as the source filed them. Cut-off read from the data, not from the text of the source: active = GI50 up to about 1.1 µM and inactive = higher.

What all share (assay): inhibition of tumour cell growth, NCI panel, 48 h
Assay [1] relates to A498.
For assay [2], the system named is SW-620.
Assay [3] deals with HL-60.
The test system of assay [4] is A549.
The subject of assay [5] is MDA-MB-435.
The subject of assay [6] is RPMI-8226.
For assay [7], the system named is HCT-116.
In assay [8] the test system is 786-0.
Assay [9] has as its system Malme-3M.
Assay [10] deals with BT-549.
In assay [11] the test system is SK-MEL-5.
Assay [12] concerns ACHN.
The test system of assay [13] is DU-145.
The test system of assay [14] is IGROV-1.
In assay [15] the test system is HCT-15.
Assay [16] concerns K562.
The test system of assay [17] is MCF7.
Assay [18] deals with OVCAR-8.
Assay [19] has as its system HOP-62.
Assay [20] concerns SR.

For the compound `C(=N\NC1=NCCCN1)/c1ccc(-c2cn3cc(/C=N/NC4=NCCCN4)ccc3n2)cc1`, the GI50 in assay [1] was > 41.7 µM (inactive); in assay [2] it was > 100 µM (inactive); in assay [3], 20.7 µM (inactive); in assay [4], 24.6 µM (inactive); in assay [5] it was > 100 µM (inactive); in assay [6], > 27.9 µM (inactive). For the same compound, the GI50 in assay [7] was > 88.3 µM (inactive); in assay [8] it was 18.9 µM (inactive); in assay [9], 19 µM (inactive); in assay [10], > 100 µM (inactive); in assay [11], > 100 µM (inactive); in assay [12], 42 µM (inactive). Further, the GI50 in assay [13] is 26.6 µM (inactive); in assay [14], 50.6 µM (inactive); in assay [15] it was more than 100 µM; in assay [16] it was 38.4 µM (inactive); in [17] it was 32 µM (inactive); in assay [18], > 50.2 µM (inactive). Besides, the GI50 in assay [19] is > 79.8 µM (inactive).
On to `Nc1ccc(-c2nc3ccccc3s2)cc1F`, for which the GI50 in assay [1] was 0.0775 µM (active); in assay [2] it was 42.3 µM (inactive); in assay [4], 21.3 µM (inactive); in [5], 31.6 µM (inactive); in assay [7] it was 15.5 µM (inactive); in assay [8], 22.6 µM (inactive). The GI50 in assay [20] is 23.6 µM (inactive); in [9], 42 µM (inactive); in assay [10], 68.4 µM (inactive); in [11], 20 µM (inactive); in assay [12], 22 µM (inactive); in assay [13], 30.2 µM (inactive). In addition, the GI50 is < 0.01 µM (active) in [14]; 33.2 µM in assay [15]; 35.6 µM (inactive) in assay [16]; < 0.01 µM (active) in [17]; > 100 µM (inactive) in assay [18]; 30.7 µM (inactive) in [19].
Take `CNC(=O)C1CCCN1C(=O)C(Cc1c[nH]cn1)NC(=O)C1CCC(=O)N1` (centres undefined): the GI50 in assay [2], in assay [3], in assay [4], in [5], in assay [6] and in assay [7] was > 100 µM (inactive) throughout. Moreover, the GI50 is 85.5 µM (inactive) in assay [8]; > 100 µM (inactive) in assay [20]; > 100 µM (inactive) in assay [9]; > 100 µM (inactive) in assay [10]; > 100 µM (inactive) in assay [11]; > 100 µM (inactive) in assay [12]. Besides, the GI50 in assay [13] was > 100 µM (inactive); in [14], > 100 µM (inactive); in assay [15] it was more than 100 µM; in assay [16] it was > 100 µM (inactive); in [17] it was > 100 µM (inactive); in assay [18], > 100 µM (inactive). In addition, in assay [19], the GI50 was > 100 µM (inactive).
Turning to `CC(C)COP(=O)(OCC(C)C)C(NS(=O)(=O)c1ccccc1)(C(F)(F)F)C(F)(F)F`, the GI50 in [2] is 4.15 µM (inactive); in assay [3], 1.22 µM (inactive); in assay [4], 3.82 µM (inactive); in [5] it was 4.45 µM (inactive); in assay [6] it was 1.66 µM (inactive); in assay [7], 5.24 µM (inactive). Further, the GI50 in assay [8] was 7.53 µM (inactive); in [20], 2.08 µM (inactive); in assay [9], 11.9 µM (inactive); in assay [10] it was 4.03 µM (inactive); in assay [11] it was 5.12 µM (inactive); in [12], 2.99 µM (inactive). Moreover, the GI50 in [13] was 5.71 µM (inactive); in [14], 4.41 µM (inactive); in [15], 3.94 µM; in [16], 4.8 µM (inactive); in assay [17] it was 7.57 µM (inactive); in [18], 6.46 µM (inactive). For the same compound, the GI50 in assay [19] is 11.3 µM (inactive).
On to `Oc1ccc(NCc2cc(O)ccc2O)cc1`, for which the GI50 is 28.4 µM (inactive) in [1]; 11.5 µM (inactive) in assay [2]; 3.03 µM (inactive) in assay [3]; 53.1 µM (inactive) in [4]; 16.4 µM (inactive) in [5]; 4.99 µM (inactive) in assay [6]. Besides, the GI50 in assay [7] was 15.3 µM (inactive); in assay [8], 15 µM (inactive); in assay [9], 19.1 µM (inactive); in assay [10], 12.7 µM (inactive); in [11], 16.9 µM (inactive); in assay [12], 16.1 µM (inactive). Also, the GI50 in assay [13] is 18.5 µM (inactive); in assay [14], 16.4 µM (inactive); in [15], 15.6 µM; in assay [16], 19.2 µM (inactive); in assay [17], 13.9 µM (inactive); in [18], 25.8 µM (inactive). In addition, the GI50 in [19] was 18.7 µM (inactive).
`CCN(CC)Cc1nc(C2CCC([N+](=O)[O-])O2)no1` (centres undefined): the GI50 was 19.4 µM (inactive) in [2]; 16.6 µM (inactive) in assay [3]; 39.8 µM (inactive) in assay [4]; 18.1 µM (inactive) in assay [5]; 31.3 µM (inactive) in assay [6]; 24.3 µM (inactive) in assay [7]. Further, the GI50 was 40 µM (inactive) in assay [8]; 28.2 µM (inactive) in assay [20]; 15.9 µM (inactive) in assay [9]; 23.3 µM (inactive) in [10]; 16.4 µM (inactive) in [11]; 98.2 µM (inactive) in assay [12]. For the same compound, the GI50 in [13] was 25.7 µM (inactive); in assay [14], 41.5 µM (inactive); in assay [15], 19.4 µM; in assay [16], 36.2 µM (inactive); in [17] it was 15.6 µM (inactive); in assay [18] it was 30.1 µM (inactive). Further, the GI50 in assay [19] is 35.7 µM (inactive).
For the compound `C=CCCCCOC1C=CC(OC(C)=O)C(COC(C)=O)O1` (centres undefined), the GI50 in assay [1], in [2], in [3], in assay [4], in assay [5] and in [6] was > 100 µM (inactive) each time. In addition, the GI50 in assay [7], in assay [8], in [9], in [10], in assay [11] and in assay [12] was > 100 µM (inactive) each time. Besides, the GI50 in assay [13] is > 100 µM (inactive); in assay [14] it was > 100 µM (inactive); in [15] it was more than 100 µM; in assay [16], > 10 µM (inactive); in assay [17], > 100 µM (inactive); in assay [18], > 100 µM (inactive). Further, in [19], the GI50 was > 100 µM (inactive).
For the compound `O=C(NN=C1CCCCC1)Nc1ccccc1Cl`, the GI50 is 43.8 µM (inactive) in [2]; 29.6 µM (inactive) in [3]; 81.7 µM (inactive) in assay [4]; 16.6 µM (inactive) in assay [5]; 45.9 µM (inactive) in assay [6]; 48.8 µM (inactive) in [7]. For the same compound, the GI50 was > 100 µM (inactive) in assay [8]; 22.5 µM (inactive) in assay [20]; 40.3 µM (inactive) in assay [9]; 64.4 µM (inactive) in assay [10]; 27.3 µM (inactive) in [11]; > 100 µM (inactive) in [12]. Further, the GI50 in [13] is 86.1 µM (inactive); in [14] it was 26.5 µM (inactive); in assay [15], 39.6 µM; in [16], 37.7 µM (inactive); in [17], 34.2 µM (inactive); in assay [18] it was 62.5 µM (inactive).
As for `CCOC(=O)C(C)(C)Oc1ccc(Cl)cc1` [CLOFIBRATE], the GI50 in assay [1] was 297 µM (inactive); in assay [2] it was 614 µM (inactive); in assay [3], > 1000 µM (inactive); in assay [4], 432 µM (inactive); in assay [5], 601 µM (inactive); in [7], 214 µM (inactive). In addition, the GI50 in [8] is 462 µM (inactive); in assay [9] it was 215 µM (inactive); in assay [10], > 1000 µM (inactive); in assay [11] it was 147 µM (inactive); in assay [12], > 1000 µM (inactive); in assay [13], 935 µM (inactive). Further, the GI50 is 461 µM (inactive) in assay [14]; 435 µM in [15]; > 1000 µM (inactive) in [16]; 325 µM (inactive) in assay [17]; 63.1 µM (inactive) in [18]; > 1000 µM (inactive) in assay [19].
As to `COc1ccc2nc(-c3cccc(N(C)C)c3)cc(O)c2c1`, the GI50 is 0.264 µM (active) in assay [2]; 0.187 µM (active) in assay [3]; 0.147 µM (active) in [4]; 0.0726 µM (active) in assay [5]; 0.318 µM (active) in assay [6]; 0.101 µM (active) in [7]. Besides, the GI50 was 0.408 µM (active) in assay [8]; 0.142 µM (active) in assay [20]; 0.177 µM (active) in [9]; 1.15 µM (inactive) in assay [10]; 0.211 µM (active) in assay [11]; 0.618 µM (active) in [12]. Also, the GI50 is 0.384 µM (active) in assay [13]; 0.553 µM (active) in assay [14]; 0.317 µM in assay [15]; 0.242 µM (active) in assay [16]; 0.413 µM (active) in assay [17]; 0.186 µM (active) in assay [18].
For `COC(CNC(=O)C(C)NC(=O)/C=C/c1ccccc1)OC` (centres undefined), the GI50 in assay [2], in [3], in [4], in assay [5], in assay [6] and in assay [7] was > 100 µM (inactive) in each case. Besides, the GI50 in [8], in assay [20], in assay [9], in assay [10], in assay [11] and in [12] was > 100 µM (inactive) each time. Moreover, the GI50 in [13] is > 100 µM (inactive); in [14] it was > 100 µM (inactive); in assay [15], more than 100 µM; in assay [16], > 100 µM (inactive); in assay [17], > 100 µM (inactive); in [18], > 100 µM (inactive).

For the origin of these results see ChEMBL document CHEMBL1201862, “PubChem BioAssay data set” (2004).
